Data published in PubChem BioAssay (NCI).
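Tested at 5 concentrations; 48 h exposure; 96-well plates; endpoints linearly interpolated, else capped at highest concentration. Abbreviation: GI50, concentration required for 50% inhibition of growth. TGI denotes the concentration required for complete inhibition of growth.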

What was measured:
Assay in all cases: NCI-60 cell line screen, 48 h
MCF7 breast = system: MCF7 breast
BT-549 breast = system: BT-549 breast
COLO 205 colon = system: COLO 205 colon
LOX IMVI melanoma = system: LOX IMVI melanoma
HCT-15 colon = system: HCT-15 colon
SF-268 CNS = system: SF-268 CNS
SN12C renal = system: SN12C renal
ACHN renal = system: ACHN renal
SK-OV-3 ovarian = system: SK-OV-3 ovarian
MDA-MB-231 breast = system: MDA-MB-231 breast
OVCAR-4 ovarian = system: OVCAR-4 ovarian
MOLT-4 leukemia = system: MOLT-4 leukemia
SF-539 CNS = system: SF-539 CNS
RPMI-8226 leukemia = system: RPMI-8226 leukemia
HT29 colon = system: HT29 colon
SK-MEL-28 melanoma = system: SK-MEL-28 melanoma
IGROV1 ovarian = system: IGROV1 ovarian
OVCAR-5 ovarian = system: OVCAR-5 ovarian
PC-3 prostate = system: PC-3 prostate
HOP-62 NSCLC = system: HOP-62 NSCLC
CAKI-1 renal = system: CAKI-1 renal
SK-MEL-2 melanoma = system: SK-MEL-2 melanoma
EKVX NSCLC = system: EKVX NSCLC
NCI/ADR-RES ovarian = system: NCI/ADR-RES ovarian
NCI-H23 lung = system: NCI-H23 lung
T-47D breast = system: T-47D breast
SF-295 CNS = system: SF-295 CNS
HS 578T breast = system: HS 578T breast
SK-MEL-5 melanoma = system: SK-MEL-5 melanoma
A498 renal = system: A498 renal
DU-145 prostate = system: DU-145 prostate
OVCAR-8 ovarian = system: OVCAR-8 ovarian
KM12 colon = system: KM12 colon
HOP-92 NSCLC = system: HOP-92 NSCLC
RXF 393 renal = system: RXF 393 renal
MALME-3M melanoma = system: MALME-3M melanoma
UACC-257 melanoma = system: UACC-257 melanoma
NCI-H226 lung = system: NCI-H226 lung
NCI-H522 lung = system: NCI-H522 lung
MDA-MB-435 = system: MDA-MB-435
M14 melanoma = system: M14 melanoma
U251 CNS = system: U251 CNS
SNB-75 CNS = system: SNB-75 CNS
HCC-2998 colon = system: HCC-2998 colon
UO-31 renal = system: UO-31 renal
TK-10 renal = system: TK-10 renal
NCI-H460 lung = system: NCI-H460 lung
SR leukemia = system: SR leukemia
SNB-19 CNS = system: SNB-19 CNS
UACC-62 melanoma = system: UACC-62 melanoma
SW-620 colon = system: SW-620 colon
HCT-116 colon = system: HCT-116 colon
A549 NSCLC = system: A549 NSCLC
CCRF-CEM leukemia = system: CCRF-CEM leukemia
786-0 renal = system: 786-0 renal
K-562 leukemia = system: K-562 leukemia
HL-60(TB) leukemia = system: HL-60(TB) leukemia

## Cn1ccnc1C(=O)/C=C/c1ccc(CNC(=O)c2ccc(F)cc2)cc1
MCF7 breast
  GI50: 1.67 µM
  TGI: > 25 µM
BT-549 breast
  GI50: 2.61 µM
  TGI: 6.77 µM
COLO 205 colon
  GI50: 2.78 µM
  TGI: 7.05 µM
LOX IMVI melanoma
  GI50: 1.19 µM
  TGI: 4.4 µM
HCT-15 colon
  GI50: 1.9 µM
  TGI: > 25 µM
SF-268 CNS
  GI50: 2.98 µM
  TGI: 9.42 µM
SN12C renal
  GI50: 6.67 µM
  TGI: > 25 µM
ACHN renal
  GI50: 4.17 µM
  TGI: 8.72 µM
SK-OV-3 ovarian
  GI50: 7.54 µM
  TGI: > 25 µM
MDA-MB-231 breast
  GI50: 5.9 µM
  TGI: > 25 µM
OVCAR-4 ovarian
  GI50: 5.49 µM
  TGI: > 25 µM
MOLT-4 leukemia
  GI50: 5.03 µM
  TGI: 15.8 µM
SF-539 CNS
  GI50: 2.59 µM
  TGI: 6.28 µM
RPMI-8226 leukemia
  GI50: 1.01 µM
  TGI: 5.98 µM
HT29 colon
  GI50: 2.98 µM
  TGI: 7.36 µM
SK-MEL-28 melanoma
  GI50: 4.82 µM
  TGI: 11.6 µM
IGROV1 ovarian
  GI50: 3.03 µM
  TGI: 12.1 µM
OVCAR-5 ovarian
  GI50: 3.54 µM
  TGI: 9.04 µM
PC-3 prostate
  GI50: 3.87 µM
  TGI: 10.8 µM
HOP-62 NSCLC
  GI50: 3.69 µM
  TGI: 12.5 µM
CAKI-1 renal
  GI50: 2.36 µM
  TGI: > 25 µM
SK-MEL-2 melanoma
  GI50: 4.95 µM
  TGI: 14.8 µM
EKVX NSCLC
  GI50: 10.4 µM
  TGI: > 25 µM
NCI/ADR-RES ovarian
  GI50: 6.06 µM
  TGI: > 25 µM
NCI-H23 lung
  GI50: 3.58 µM
  TGI: 9.3 µM
T-47D breast
  GI50: 2.54 µM
  TGI: 22.9 µM
SF-295 CNS
  GI50: 9.12 µM
  TGI: > 25 µM
HS 578T breast
  GI50: 8.13 µM
  TGI: > 25 µM
SK-MEL-5 melanoma
  GI50: 7.08 µM
  TGI: 21 µM
A498 renal
  GI50: 3.35 µM
  TGI: 6.79 µM
DU-145 prostate
  GI50: 1.5 µM
  TGI: 4.89 µM
OVCAR-8 ovarian
  GI50: 6.62 µM
  TGI: > 25 µM
KM12 colon
  GI50: 2.13 µM
  TGI: 5.44 µM
HOP-92 NSCLC
  GI50: 5.32 µM
  TGI: 24.7 µM
RXF 393 renal
  GI50: 3.11 µM
  TGI: 7.27 µM
MALME-3M melanoma
  GI50: 4.48 µM
  TGI: 12.2 µM
UACC-257 melanoma
  GI50: 5.52 µM
  TGI: 19.2 µM
NCI-H226 lung
  GI50: 6.9 µM
  TGI: > 25 µM
NCI-H522 lung
  GI50: 4.04 µM
  TGI: 7.74 µM
MDA-MB-435
  GI50: 4.08 µM
  TGI: 10.4 µM
M14 melanoma
  GI50: 4.7 µM
  TGI: 12.2 µM
U251 CNS
  GI50: 2.35 µM
  TGI: 6.7 µM
SNB-75 CNS
  GI50: 2.5 µM
  TGI: > 25 µM
HCC-2998 colon
  GI50: 3.8 µM
  TGI: 7.54 µM
UO-31 renal
  GI50: 2.63 µM
  TGI: 6.19 µM
TK-10 renal
  GI50: 5.92 µM
  TGI: 17.4 µM
NCI-H460 lung
  GI50: 3.4 µM
  TGI: 10.5 µM
SR leukemia
  GI50: 0.792 µM
  TGI: > 25 µM
SNB-19 CNS
  GI50: 3.39 µM
  TGI: 10.5 µM
UACC-62 melanoma
  GI50: 4.26 µM
  TGI: 9.47 µM
SW-620 colon
  GI50: 2.77 µM
  TGI: 8.72 µM
HCT-116 colon
  GI50: 3.46 µM
  TGI: 8.47 µM
A549 NSCLC
  GI50: 5.74 µM
  TGI: > 25 µM
CCRF-CEM leukemia
  GI50: 2.55 µM
  TGI: > 25 µM
786-0 renal
  GI50: 4.12 µM
  TGI: 12.1 µM
K-562 leukemia
  GI50: 1.02 µM
  TGI: > 25 µM
HL-60(TB) leukemia
  GI50: 2.99 µM
  TGI: 10.4 µM

## NC(N)=Nc1ccc(Nc2cccc(Oc3ccc(Cl)c(C(F)(F)F)c3)c2)cn1
SK-OV-3 ovarian
  GI50: 3.5 µM
  TGI: 13.2 µM
NCI/ADR-RES ovarian
  GI50: 15.6 µM
  TGI: > 100 µM
T-47D breast
  GI50: 1.62 µM
  TGI: 4.55 µM
SNB-75 CNS
  GI50: 1.6 µM
  TGI: 3.33 µM
K-562 leukemia
  GI50: 2.11 µM
  TGI: > 100 µM
